Source: US8895717B2, “Delivery of siRNA by neutral lipid compositions” (The Board of Regents of the University of Texas System, priority 2005, dated 2014)
d = 2'-deoxy (DNA); r = 2'-OH (RNA)

Tests used:
[1] = system: SKOV3-TR and HeyA8-MDR cells; test: TUNEL apoptosis assay, taxane-resistant cells; format: cell-based, human; settings: FAK siRNA with or without docetaxel
Description: Terminal deoxynucleotidyl transferase-mediated nick end labeling-positive cells were detected using Dead End Fluorometric terminal deoxynucleotidyl transferase-mediated nick end labeling system (APO-DIRECT, BD Biosciences/PharMingen, San Diego, Calif.) according to the manufacturer's instructions. Briefly, ovarian cancer cells in culture were treated with varying concentrations of docetaxel and harvested after 12, 24, 48, or 96 hours. Cells were fixed with 4% paraformaldehyde solution for 25 minutes on ice. Intracellular DNA fragments were then labeled by exposing cells to fluorescein-12-dUTP, treated with propidium iodide and RNaseA solution, and analyzed by flow cytometry (EPICS XL, Beckman Coulter, Miami, Fla.). The percentages of apoptotic cells were averaged over three consecutive experiments.

[2] = system: Murine FAK; test: FAK siRNA treatment of murine endothelial cells; format: cell-based, mouse; settings: murine endothelial cells from the ovary of ImmortoMice
Text: To determine potential mechanisms underlying the efficacy of anti-FAK based therapy, its effects on several biological endpoints were examined, including angiogenesis (MVD), proliferation (PCNA), and apoptosis (TUNEL). Due to growing evidence related to FAK and tumor angiogenesis (Kornberg et al., 2004; Mitra et al., 2005). The inventors evaluated vessel density (FIG. 14B) in the tumors harvested from the studies described above. […] To determine if FAK siRNA mediated in vivo effects on endothelial cells were direct, the inventors treated murine endothelial cells isolated from the ovary of ImmortoMice (H-2k(b)-ts A58) (Langley et al., 2003) with FAK siRNA. Murine FAK levels were not altered by the FAK siRNA used for the in vivo studies (data not shown).

[3] = system: HeyA8 cells; test: Cytotoxicity assay (MTT), HeyA8; format: cell-based, human; settings: HeyA8; siRNA 48 hours before docetaxel; at 50% cytotoxicity
Description: (§1) The medium was exchanged after 48 hours with increasing concentrations of docetaxel (obtained from Aventis Pharma, Bridgewater, N.J.) dissolved in ethanol (final concentration range, 0.1-10,000 nmol/L prepared in medium) or cisplatin (purchased from LKT Laboratories, Inc., St. Paul, Minn.) dissolved in water. After a 96-hour incubation, 50 μL of 0.15% 3-(4,5-dimethylthiazol-2-yl)-2,5-diphenyltetrazolium bromide was added to each well and incubated for 2 hours. The supernatant was removed, and cells were dissolved in 100 μL DMSO. The absorbance at 570 nm was recorded using a FALCON microplate reader (Becton Dickinson Labware, Bedford, Mass.), and cell survival expressed as a percent increase or decrease above control conditions, after subtracting blank A570 readings. The IC50 concentration was determined by finding the A570 reading midpoint between maximal and minimal readings and finding the chemotherapy concentration that intersects the growth curve at that A570 reading.

[4] = system: SKOV3-TR cells; test: Cytotoxicity assay (MTT), SKOV3-TR; format: cell-based, human; settings: SKOV3-TR; siRNA 48 hours before docetaxel
Description: as §1

[5] = system: HeyA8-MDR cells; test: Cytotoxicity assay (MTT), HeyA8-MDR; format: cell-based, human; settings: HeyA8-MDR; siRNA 48 hours before docetaxel
Description: as §1

[6] = system: FAK; test: FAK down-regulation by siRNA in vitro, Western blot; format: cell-based, human; settings: for suppression of FAK expression: SKOV3, 72 hours of transfection
Description: siRNAs were synthesized and then purified using high-performance liquid chromatgraphy (Qiagen-Xeragon, Germantown, Md.). FAK siRNA sense: r(CCACCUGGGCCAGUAUUAU)d(TT) (SEQ ID NO:7); antisense: r(AUAAUACUGGCCCAGGUGG)d(TT) (SEQ ID NO:8) and control siRNA sense: r(UUUUCCGAACGUGUCACGU)dTT; (SEQ ID NO:9) antisense: r(ACGUGACACGUUCGGAGAA)dTT (SEQ ID NO:10) bearing no sequence homology with any known human mRNA sequences were dissolved in buffer (100 mmol/L potassium acetate, 30 mmol/L HEPES potassium hydroxide, 2 mmol/L magnesium acetate, pH 7.4) to a final concentration of […], heated to 90° C. for 60 seconds, incubated at 37° C. for 60 minutes, and stored at −20° C. until future use.
Cells were lysed in modified RIPA buffer (50 mM Tris, 150 mM NaCl, 1% triton, 0.5% deoxycholate plus 25 µg/ml leupeptin, 10 µg/ml aprotinin, 2 mM EDTA, and 1 mM sodium orthovanadate (Sigma Chemical Co, St. Louis, Mo.) as previously described (Sood et al., 2004; Sood et al., 2002). A sample was removed from culture dishes by cell scraping and centrifuged at 12,500 rpm for 30 min. The […] protein concentration of the supernatant was determined using a bicinchoninic acid protein assay reagent kit (Pierce, Rockford, Ill.), and whole cell lysates were analyzed by 7.5% SDS-PAGE. Samples were then transferred to nitrocellulose membrane by semi-dry transfer (BioRad Laboratories, Hercules, Calif.). Membranes were blocked with 5% nonfat milk, and incubated with 0.25 μg/mL anti-FAK antibody (Biosource, International Camarillo, Calif.) for 1 h at room temperature. Antibody was detected with 0.167 μg/mL HRP-conjugated anti-mouse secondary antibody (The Jackson Laboratory, Bar Harbor, Me.) and developed with an enhanced chemiluminescence detection kit (Pierce). Equal loading was confirmed by detection of β-actin (0.1 μg/ml, anti-β-actin antibody, Sigma Chemical). Densitometric analysis was performed using the Scion Imaging software (Scion Corporation, Frederick, Md.).
Next, the inventors sought to examine whether FAK silencing using siRNA will sensitize ovarian cancer cells to docetaxel.

[7] = system: HeyA8 cells; test: Chronic restraint stress, HeyA8 orthotopic tumor growth; format: in vivo, nude mice; settings: siRNA in DOPC three times per week
Text: Mice habituated to vivarium conditions for 1 week before the initiation of stress procedures. A restraint-stress procedure was used based on previous studies (Sheridan et al., 1991), substituting a novel Mouse Restraint System (FIG. 15A) for conical centrifuge tubes. In this system, up to 10 mice are placed in individual slots, and each slot can be adjusted to restrain the animal for a desired length of time. In the present study, restraint stress began between 8 a.m. and 10 a.m., and lasted for 2-6 hours for up to 21 days. […] Immunohistochemistry and H&E staining procedures were carried out on formalin-fixed paraffin-embedded tumors. […] Pumps were inserted on the nape of the neck 7 days prior to initiation of restraint stress for 2 hours daily. Mice were anesthetized with inhaled methoxyflurane (Medical Developments Australia Pty. Ltd, Melbourne, Australia), and implanted with Alzet pumps containing PBS or S-propranolol hydrochloride (Sigma Co., St. Louis, Mo.) diluted in PBS at a dose of 2 mg/kg/day, which allows for chronic continuous receptor blockade, for 28 days (Aarons and Molinoff, 1982; Exton et al., 2002).

Substance	apoptosis [1]	Murine FAK levels [2]	fold greater docetaxel cytotoxicity after FAK down-regulation [3] [fold]	fold increase in sensitivity to docetaxel [4] [fold]	fold increase in sensitivity to docetaxel [5] [fold]	suppression of FAK expression [6] [%]	suppression of FAK expression ([6]; listed as FAK-specific siRNA) [%]	FAK expression ([6]; after 24 hours of treatment)	effect on stress induced increase in tumor weight, nodules and metastasis [7]	FAK expression compared with untreated cells ([6]; SKOV3)
FAK siRNA: sense r(CCACCUGGGCCAGUAUUAU)d(TT), antisense r(AUAAUACUGGCCCAGGUGG)d(TT); for in vivo delivery incorporated into DOPC (sense CCACCUGGGCCAGUAUUAUTT; antisense AUAAUACUGGCCCAGGUGGTT; sugars from the 5' end r19 d2, backbone not given here)	neither agent alone induced much apoptosis	not altered	8	4.8	5.5	90	> 90	detectable decrease in FAK expression		
control siRNA: sense r(UUUUCCGAACGUGUCACGU)dTT, antisense r(ACGUGACACGUUCGGAGAA)dTT, no homology with human mRNA; in vivo in DOPC (sense UUUUCCGAACGUGUCACGUTT; antisense ACGUGACACGUUCGGAGAATT; sugars from the 5' end r19 d2, backbone not given here)									failed to block stress-induced enhancement of tumor weight and nodules	did not significantly affect FAK expression
